Assay results taken from the NIST ThermoML archive (doi:10.1021/je0500330).

How the values were obtained:
[1] = Liquid; for speed of sound / mass density: 298.15 K, 101.33 kPa; for speed of sound: Sing-around technique in a fixed-path interferometer; for mass density: Vibrating tube method
[2] = refractive index (Na D-line) (dimensionless); conditions: 298.15 K; 101.33 kPa; Liquid; Standard Abbe refractometry
[3] = xn = mol fraction of the nth substance listed; conditions: 298.15 K, 101.3 kPa, Liquid
[4] = refractive index (Na D-line) (dimensionless); xn = mol fraction of the nth substance listed; conditions: 298.15 K, 101.3 kPa, Liquid

CCC(C)CO (centres undefined) [2-methyl-1-butanol]
Conditions | mass density [kg/m3] | refractive index | speed of sound [m/s]
[1] | 814.87 | – | 1253
[2] | – | 1.40872 | –

[1]
Conditions | vapor or sublimation pressure [kPa]
401.58 K | 101.3
401.86 K | 101.3

CO [methanol]
Conditions | mass density [kg/m3] | refractive index | speed of sound [m/s]
[1] | 787.14 | – | 1102
[2] | – | 1.32667 | –

Conditions | vapor or sublimation pressure [kPa]
[1], 337.65 K | 101.3

CCC(C)CO (centres undefined) [2-methyl-1-butanol] + CCO
Conditions | mass density, [3] [kg/m3] | refractive index, [4] | speed of sound, [3] [m/s]
x2 = 0.0486 | 814.11 | 1.40734 | 1247.7
x2 = 0.1013 | 813.23 | 1.40583 | 1245
x2 = 0.1523 | 812.31 | 1.40424 | 1241.4
x2 = 0.1987 | 811.39 | 1.40277 | 1237.6
x2 = 0.2503 | 810.38 | 1.40112 | 1233.6
x2 = 0.3004 | 809.33 | 1.39926 | 1229.6
x2 = 0.3486 | 808.22 | 1.39756 | 1225.3
x2 = 0.4003 | 807.02 | 1.39549 | 1221
x2 = 0.4502 | 805.74 | 1.39341 | 1215.9
x2 = 0.5004 | 804.41 | 1.3912 | 1210.5
x2 = 0.5502 | 803.01 | 1.38899 | 1205.4
x2 = 0.6004 | 801.43 | 1.38636 | 1199.4
x2 = 0.6503 | 799.81 | 1.38373 | 1193.1
x2 = 0.7 | 798.1 | 1.38109 | 1186.9
x2 = 0.8009 | 794.32 | 1.37475 | 1173
x2 = 0.8503 | 792.34 | 1.37134 | 1166
x2 = 0.9002 | 790.13 | 1.36758 | 1158.2
x2 = 0.9503 | 787.77 | 1.36358 | 1150.2

CCC(C)CO (centres undefined) [2-methyl-1-butanol] + CO
Conditions | mass density, [3] [kg/m3] | refractive index, [4] | speed of sound, [3] [m/s]
x2 = 0.0485 | 814.3 | 1.40702 | 1250.7
x2 = 0.1016 | 813.63 | 1.40511 | 1246.7
x2 = 0.1543 | 812.9 | 1.40324 | 1242.6
x2 = 0.1987 | 812.22 | 1.40162 | 1238.7
x2 = 0.2528 | 811.35 | 1.39907 | 1233.9
x2 = 0.3017 | 810.5 | 1.39712 | 1229
x2 = 0.3496 | 809.49 | 1.39461 | 1223
x2 = 0.4005 | 808.36 | 1.39181 | 1217
x2 = 0.4506 | 807.25 | 1.38875 | 1210.7
x2 = 0.4987 | 806.12 | 1.38569 | 1204.2
x2 = 0.5502 | 804.84 | 1.38222 | 1197.2
x2 = 0.6003 | 803.4 | 1.37832 | 1188.8
x2 = 0.6487 | 801.91 | 1.37416 | 1180.7
x2 = 0.7003 | 800.27 | 1.36946 | 1171.5
x2 = 0.7504 | 798.44 | 1.3642 | 1162.7
x2 = 0.8002 | 796.5 | 1.35846 | 1151.4
x2 = 0.8503 | 794.35 | 1.35214 | 1142.2
x2 = 0.9004 | 791.96 | 1.34482 | 1131.5
x2 = 0.9503 | 789.39 | 1.33618 | 1120.5

CCO [ethanol]
Conditions | mass density [kg/m3] | refractive index | speed of sound [m/s]
[1] | 785.36 | – | 1143
[2] | – | 1.35916 | –

Conditions | vapor or sublimation pressure [kPa]
[1], 351.5 K | 101.3
